Laboratory results: US10898548B2, “Modulators of protein tyrosine phosphatase and uses thereof” (LEUVAS THERAPEUTICS, priority 2015, dated 2021)

Experiments:
[1] = system: human primary monocytes; test: static adhesion of fMLP-stimulated monocytes to ICAM-1; format: cell-based; design: adherent monocytes on ICAM-1: unit not given here
Method: We investigated the functional effect of PTPRG activation on integrin activation and mediated adhesion by chemoattractants in human primary monocytes and PMNs in a static and flow adhesion assays. Briefly, human primary monocytes or polymorphonuclear cells were suspended at 5×10^6/ml in standard adhesion buffer. Adhesion assays were performed on 18-well glass slides coated with 1 mg/ml human fibrinogen or with 1 μg/ml human ICAM-1 in PBS; 20 μl of cell suspension were added to the coated wells and stimulated for 1 min at 37° C. with 5 μl of fMLP, 0.05 μM final concentration. After rapid washing, adherent cells were fixed in ice-cold 1.5% glutaraldehyde in PBS, and still images of adherent cells in 0.2 mm^2 fields were acquired al 20× phase contrast magnification, NA 0.40, with a charge-coupled device camera (ICD-42B; Ikegami) connected to an inverted microscope (IX50; Olympus). Image acquisition and computer-assisted enumeration of adherent cells were performed with ImageJ (National Institute of Health).
We then investigated the functional effect of TAT-ICD on integrin activation and mediated adhesion by chemoattractants. Static adhesion assays were performed as described in Example 2. […] Data are mean number of adherent cells in 5 experiments in triplicate.
To evaluate whether JAK2 mediates chemoattractant-induced adhesion of human monocytes to beta-2 integrin substrates human monocytes were treated control buffer or P1 or with the three JAK inhibitors. Briefly, human monocytes were treated with buffer (CTRL=control), or 40 μM P1 or P1-TKIP peptides, 100 μM AG490 or 200 μM WHI-P154 for 1 hour at 37° C. and stimulated with 50 nM fMLP for 60 sec.; data are mean and standard deviation (SD) of 6 experiments in triplicate.
Human primary monocytes were isolated from buffy coats from healthy donors and pre-incubated for 30 minutes at room temperature with our without 0.075 micromolar PTPX. Standard adhesion assays on ICAM-1 coated glass slides. Cell suspensions were added to the coated wells for 1 minute, stimulated for 1 minute at 37° C. with […] fMLP. Non-adherent cells were washed away and adherent cells were fixed in ice-cold 1.5% glutaraldehyde in PBS and adherent cells were counted using computer assisted automatic quantification. Data are from a representative experiment and are the mean and standard deviation of 24 measurements per condition (Table 35).

[2] = system: human primary monocytes; test: as above; format: cell-based; design: unit not given here; details: 0.075 micromolar PTPX, 30 minutes; 50 nM fMLP; Control 212.8
[3] = system: PTPRG; test: in vitro phosphatase activity (pNPP) on membranes from human primary monocytes; format: biochemical; details: orthovanadate treatment
Method: We first tested the biochemical activity of the fusion peptide by performing in vitro assays of phosphatase activity on purified membranes isolated from human primary monocytes compared to membranes isolated from human primary polymorphonuclear cells (PMNs). Human primary monocytes and polymorphonuclear (PMNs) cells were isolated from whole blood of healthy donors. Purity of monocyte preparation was evaluated by flow cytometry after staining with fluorescein isothiocyanate (FITC)-conjugated anti-CD14 antibody and was more than 95%. Isolated cells were kept at 37° C. in standard adhesion buffer (PBS, 1 mM CaCl2, 1 mM MgCl2, 10% FBS, pH 7.2) and used within 1 h.
The phosphatase activity in membrane fractions isolated from human monocytes and PMNs was assessed. […] Cells were then sonicated twice (6 sec, 15% W) and centrifuged at 2000 rpm for 10 minutes. The supernatants were collected and centrifuged at 28000 rpm for 60 minutes. After centrifugation, the supernatants were discarded, and the membrane pellets were dissolved in 20 mM tris pH 7.4. Equal amount of membrane fractions were added to pNPP buffer containing 20 mM tris, 10 mM DTT and 2 mM pNPP. Following, DMSO and peptides were added. After 30 minutes of incubation, levels of de-phosphorylation, in presence or absence of orthovanadate, were measured at 405 nm by a plate reader. Values are absorbance at 405 nn shown as percent fold increase over the blank; mean values of three experiments are shown. *p<0.001 vs vehicle (DMSO).

[4] = system: JAK2 (pYpY1007/1008); test: p-JAK2 ELISA on monocytes; format: cell-based, human; details: monocytes, Resting 100.0, in % (unit assumed)
Text: (§1) JAK2 regulation by PTPRG as assessed through the high-throughput phospho-proteomics analysis evidenced that PTPRG activation (Example 4, Table 9 and 10) provides a useful example of the exploitation of this analysis system for identification of targets and unexpected indications/uses for known and novel agents that regulate the phoshoproteome. […] Furthermore, the capability of fMLP to trigger JAKs activation has never been observed. The results described in Example 4 unexpectedly implicate JAK2 de-phosphorylation by PTPRG as playing a role in the anti-adhesive role of PTPRG on monocytes. To test this system-generated hypothesis we first set out to define the role of JAK2 in fMLP-triggered rapid adhesion in monocytes. Time course experiments, either performed with ELISA assay or Western Blot. Briefly, purified human monocytes were treated with buffer (resting) or with 50 nM fMLP for the indicated times (Table 12), and the phosphorylation was assessed by p-Jak2 elisa and Western Blot analysis. The JAK2 activation was determined with Elisa Kit JAK2 (pYpY1007/1008) (Invitrogen). Briefly, cells were stimulated with agonist and lysed following manufacturer's protocol; levels of phospho-JAK2 were quantified (absorbance at 450 nm) with a micro-well plate reader (Victor™ X5 Multilabel Plate Reader, Perkin Elmer). For Western blot analysis, cells were lysed in ice-cold 1% Nonidet P-40 buffer, containing phosphatase inhibitors and complete protease inhibitor cocktail (Roche). Total cell lysates were quantified by Bradford assay (Bio-Rad). Equal amounts of total lysates or of isolated membranes (as described in Example 1) were subjected to 10% SDS-PAGE and then blotted. After incubation with anti-PTPRG, anti gp91^Phox, anti phospho-JAK2, anti JAK2 and HRP-linked secondary antibodies (GE Healthcare), immunoreactive bands were visualized by ECL detection (EMD Millipore). Intensities of band signals were quantified by densitometric analysis (Quantity One, Bio-Rad) by using ImageQuant Las4000. Data are mean value of three experiments; the relative ratio of the band intensity of phosphor-JAK2 was normalized to the level of JAK2 band intensities.
Briefly, p-JAK2 ELISA assay on human monocytes treated with buffer (CTRL=control), 50 μM P1-WD, P1 or P1-WD scrambled peptides (Table 17), or with buffer (CTRL=control), 0.5 uM TAT-ICD or 50 μM TAT peptide (Table 18) for 1 hour at 37° C. and stimulated with 50 nM fMLP for 90 sec. Shown are percentages of fold increases over the control; mean values of 3 experiments in triplicate.

[5] = target: T1, JAK2 (Homo sapiens, UniProt O60674); test: phospho-JAK2 Western Blot on monocytes; format: cell-based; details: monocytes, Resting 20.2
T1 construct: endogenous in cells; host or cells: human primary monocytes
Text: as §1
To evaluate whether JAK2 mediates fMLP-triggered rapid adhesion in human monocytes, we tested the capability of three JAK inhibitors, AG490, WHI-P154 and P1-TKIP peptide, to block adhesion triggering. Briefly, Monocytes were treated with buffer (resting and Control=CTRL), 100 μM AG490, 40 μM P1 or P1-TKIP peptides, or 200 μM WHI-P154 for 1 hour at 37° C. and stimulated with 50 nM fMLP for 180 sec. Cell lysates were probed with anti phospho-JAK2 and with anti JAK2. Western Blot immuoreactive band quantification; the relative ratio of the band intensity of phospho-JAK2 was normalized to the level of JAK2 band intensities; mean values of three experiments (Table 13).
The impact of TAT-ICD and P1-WD on JAK2 activation by chemoattractants was also evaluated by Western Blot analysis. Briefly, monocytes were treated with buffer (Resting, CTRL), 0.5 uM TAT-ICD, 50 μM TAT peptide, 50 μM P1-WD, P1 or P1-WD scrambled peptides for 1 hour at 37° C. and stimulated with 50 nM fMLP for 180 sec (the resting cells were not stimulated with fMLP). Total lysates were probed with anti phospho-JAK2 or with anti JAK. Western Blot immunoreactive bands were quantified and the relative ratio of the band intensity of phospho-JAK2 was normalized to the level of JAK2 band intensities; data are mean value and standard deviation of three experiments (Table 19).

T1 sequence (O60674 whole entry): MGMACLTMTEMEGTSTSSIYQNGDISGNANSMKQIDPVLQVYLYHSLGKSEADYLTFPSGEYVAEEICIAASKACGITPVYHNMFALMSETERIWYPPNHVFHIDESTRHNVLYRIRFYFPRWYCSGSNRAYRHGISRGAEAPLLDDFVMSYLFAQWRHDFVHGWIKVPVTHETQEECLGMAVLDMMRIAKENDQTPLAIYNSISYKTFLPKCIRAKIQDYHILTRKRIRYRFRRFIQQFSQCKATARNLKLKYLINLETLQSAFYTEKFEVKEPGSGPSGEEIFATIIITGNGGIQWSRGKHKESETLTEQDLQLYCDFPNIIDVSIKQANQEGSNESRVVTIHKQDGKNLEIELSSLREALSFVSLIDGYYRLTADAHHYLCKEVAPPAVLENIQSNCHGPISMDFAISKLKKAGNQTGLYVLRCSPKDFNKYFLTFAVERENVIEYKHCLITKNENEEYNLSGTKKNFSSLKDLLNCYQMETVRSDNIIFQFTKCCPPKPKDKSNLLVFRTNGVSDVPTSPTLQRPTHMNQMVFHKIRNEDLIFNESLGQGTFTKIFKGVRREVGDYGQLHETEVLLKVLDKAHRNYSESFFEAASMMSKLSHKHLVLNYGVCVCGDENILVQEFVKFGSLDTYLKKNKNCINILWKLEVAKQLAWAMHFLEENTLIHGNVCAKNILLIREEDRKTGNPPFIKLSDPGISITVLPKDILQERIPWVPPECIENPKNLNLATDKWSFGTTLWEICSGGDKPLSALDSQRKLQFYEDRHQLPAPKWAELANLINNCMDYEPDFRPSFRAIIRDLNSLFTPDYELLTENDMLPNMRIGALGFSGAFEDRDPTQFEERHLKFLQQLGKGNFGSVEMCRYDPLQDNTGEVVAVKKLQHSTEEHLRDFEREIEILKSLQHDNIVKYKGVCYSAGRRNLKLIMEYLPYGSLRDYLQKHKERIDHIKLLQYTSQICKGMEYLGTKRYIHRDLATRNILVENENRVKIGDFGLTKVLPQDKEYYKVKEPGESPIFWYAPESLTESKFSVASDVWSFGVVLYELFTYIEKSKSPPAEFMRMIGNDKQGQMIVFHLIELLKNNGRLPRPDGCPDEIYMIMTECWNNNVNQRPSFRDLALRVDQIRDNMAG

With “PTPx: external domain of PTPRG, amino acids 20-736, produced with a histidine tag” the “adherent monocytes on ICAM-1” value ([1]; 0.075 micromolar PTPX, 30 minutes, No Agonist, Control 22.2) was 3.4 and the “adherent monocytes on ICAM-1” value [2] was 32.7.

In the case of `[Na+].[Na+].[Na+].[O]=[V]([O-])([O-])[O-]` [Orthovanadate, Na3VO4, reference compound], the “phosphatase activity elicited in membranes” value [3] is reported as “completely prevented phosphatase activity”.

In the case of fMLP, the “increase in monocyte adhesion to ICAM-1” value ([1]; stimulation with fMLP vs no agonist) is reported as “approximately 10 fold”, the “phospho-JAK2 level, ELISA” value ([4]; 50 nM fMLP 90″) is reported as 107.3 and the “phospho-JAK2 level, ELISA” value ([4]; 50 nM fMLP 120″) is reported as 128.3. The “phospho-JAK2 level, ELISA” value ([4]; 50 nM fMLP 180″) was 155.7, the “phospho-JAK2 band intensity normalized to JAK2, Western Blot” value (shortened to “phospho-JAK2 band intensity normalized”) ([5]; 50 nM fMLP 90″) was 37.8 and the “phospho-JAK2 band intensity normalized” value ([5]; 50 nM fMLP 120″) was 46.7. The “phospho-JAK2 band intensity normalized” value ([5]; 50 nM fMLP 180″) was 58.5.
